The text below walks through data of US20070134349A1, “Methods of treating hematological malignancies” (DUKE UNIVERSITY, priority 2005, published 2007).

The conditions of series [1]: cited from earlier work.
The conditions of series [2]: cited from earlier work. This is another data set of the same source.
For series [3] the following is noted: industrial solvent of which MAA is a metabolite; cited from earlier work.
For series [4], the system named is NB4 cells. The series is described as follows: Differentiation markers CD11c/CD11b by flow cytometry in NB4 cells. The series is classed as cell-based. As for the experimental part:
(§1) NB4 cells were provided by Dr. Ronald Evans (Salk Institute, La Jolla, Calif.). NB4-R4 cells were provided by Dr. Wilson Miller (McGill University, Montreal, Canada). HL-60, U-937, and Kasumi-1 cells were obtained from the American Type Culture Collection (Rockville, Md.). NB4 and NB4-R4 cells were grown in RPMI medium 1640 containing 10% fetal bovine serum. U-937 cells were grown in RPMI medium 1640 containing 10 mM HEPES, 1 mM sodium pyruvate, 4.5 g/L glucose, and 10% fetal bovine serum. HL-60 cells were grown in Iscove's Modified Dulbecco's medium containing 20% fetal bovine serum. Kasumi-1 cells were grown in RPMI medium 1640 containing 10 mM HEPES, 1 mM sodium pyruvate, 4.5 g/L glucose, and 20% fetal bovine serum.
(§2) To determine the percentage of cells that express differentiation markers, cells were washed once and resuspended in RPMI medium 1640 containing 3% fetal bovine serum. Phycoerythrin (PE)-conjugated CD11b, 5 Allophycocyanin (APC)-CD11c or control antibodies (BD Pharmingen, San Diego, Calif.) were added into cell suspension. After 30 minutes of incubation in the dark at 4° C., the cells were washed twice and resuspended in RPMI medium 1640 containing 7-amino actinomycin D (AAD) (for dead cell exclusion) and analyzed by FACScan (Becton Dickinson).
For orientation: A flow cytometer gives signals particle by particle.

The subject of series [5] is NB4 cells. The series is described as follows: Apoptosis by Annexin V binding (flow cytometry) in NB4 cells. The series is classed as cell-based. The note with it: MAA 5 mM alone, NB4 cells, 3 days. As for the experimental part: as §1
(§3) To determine the percentage of cells that undergo apoptosis, after incubation with APC-CD11c antibody in the dark at 4° C., cells were washed twice with PBS and incubated at room temperature for 15 min with PE-conjugated Annexin-V (BD Pharmingen) and 7-AAD in binding buffer (10 mM HEPES, pH 7.4, 140 mM NaCI, 2.5 mM CaCl2) and analyzed by FACScan for CD11c expression and Annexin V binding. Apoptotic cells are those that stained positive for Annexin V and negative for 7-AAD.

Another series deals with RARE-TK-Luc reporter. Description: RARE-TK-Luc reporter transient transfection in NB4 cells. In kind it is cell-based. As to conditions: MAA 5 mM, 19 h. As for the experimental part: Electroporation was performed using a Gene Pulser (BioRad, Hercules, Calif.) apparatus at 300 V and 960 μF capacity. […] Cells were harvested 19 h after transfection/treatment for luciferase and β-galactosidase activities.

In another series the target is T1, PML-RARα (Homo sapiens, UniProt P10276+P29590).
T1 construct: PML portion (fusion partner, UniProt P29590); endogenous in cells; host or cells: NB4 cells
T1 sequence (P29590+P10276 with tags, fused parts or gaps): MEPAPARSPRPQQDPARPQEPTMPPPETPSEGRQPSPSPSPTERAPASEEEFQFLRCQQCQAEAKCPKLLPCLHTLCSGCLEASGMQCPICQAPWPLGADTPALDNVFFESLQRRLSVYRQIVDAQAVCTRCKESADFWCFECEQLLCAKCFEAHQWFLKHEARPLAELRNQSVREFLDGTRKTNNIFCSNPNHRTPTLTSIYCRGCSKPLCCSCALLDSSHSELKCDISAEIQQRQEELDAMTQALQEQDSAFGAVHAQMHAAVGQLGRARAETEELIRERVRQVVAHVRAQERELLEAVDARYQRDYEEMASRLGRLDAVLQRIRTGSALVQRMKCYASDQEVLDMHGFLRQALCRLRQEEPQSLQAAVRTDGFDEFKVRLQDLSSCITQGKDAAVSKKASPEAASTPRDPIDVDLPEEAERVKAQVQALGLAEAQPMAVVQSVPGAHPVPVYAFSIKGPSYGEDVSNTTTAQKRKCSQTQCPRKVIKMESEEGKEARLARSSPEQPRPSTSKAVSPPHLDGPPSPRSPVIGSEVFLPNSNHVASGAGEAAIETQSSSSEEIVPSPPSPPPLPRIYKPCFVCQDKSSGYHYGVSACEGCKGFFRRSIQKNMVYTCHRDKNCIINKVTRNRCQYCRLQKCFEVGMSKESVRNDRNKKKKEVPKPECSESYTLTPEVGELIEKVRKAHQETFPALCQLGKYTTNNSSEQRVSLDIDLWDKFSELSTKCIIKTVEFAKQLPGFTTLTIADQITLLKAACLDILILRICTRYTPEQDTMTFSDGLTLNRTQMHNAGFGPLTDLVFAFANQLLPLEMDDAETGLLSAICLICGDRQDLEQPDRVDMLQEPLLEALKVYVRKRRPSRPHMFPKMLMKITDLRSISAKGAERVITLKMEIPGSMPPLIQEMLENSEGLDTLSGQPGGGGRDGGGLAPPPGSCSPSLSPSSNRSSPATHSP
Description: Western blot of PML-RARα and RARα in NB4 cells. The series is classed as cell-based. As to conditions: 3 days. As for the experimental part: (§4) Whole-cell lysates were prepared by washing the cells with PBS and resuspending them in 1 ml of lysis buffer (1× phosphate-buffered saline, 1 mM EDTA, 1.5 mg/ml of iodoacetamide, 100 μM sodium orthovanadate, 0.5% Triton X-100, 20 mM β-glycerolphosphate, 0.2 mM phenylmethylsulfonyl fluoride, and 1× complete protease inhibitor cocktail). After clarification by a 15-min centrifugation in a microcentrifuge at 4° C., the resulting supernatant was collected. 20-50 μg of protein extracts were separated on a 10% SDS-polyacrylamide gel and transferred to a nitrocellulose membrane. The membrane was blocked with 5% nonfat milk followed by incubation with antibodies. The immunocomplex was visualized by chemiluminescence.

The subject of a further series is C/EBPβ. Description: Western blot of phospho-C/EBPβ (Thr-235) and C/EBPβ in NB4 cells. The series is classed as cell-based. As for the experimental part: as §4
(In general: A western blot detects proteins with antibodies after separation by electrophoresis.)

The subject of series [6] is ERK1/2. Description: Western blot of phospho-ERK1/2 in NB4 cells. In kind it is cell-based. As to conditions: 24 h. As for the experimental part: as §4
For another series, the system named is histones H3 and H4. The series is described as follows: Western blot of acetylated histones H3 and H4 in NB4 cells. In kind it is cell-based. As for the experimental part: as §4
The test system of series [7] is H3. Description: Western blot of phospho-H3 (Ser-10) in NB4 cells. The series is classed as cell-based. As to conditions: NB4 cells, 24 h. As for the experimental part:
as §4

The subject of series [8] is U-937 cells. Description: CD11c expression by flow cytometry in U-937 cells. In kind it is cell-based. As to conditions: lower concentrations, 3 days. As for the experimental part:
as §1, §2

Series [9] deals with U-937 cells. The series is described as follows: Annexin V binding in U-937 cells. The note with it: higher concentrations, 3 days. The series is classed as cell-based. As for the experimental part:
as §1, §3

For series [10], the system named is ERK1/2. Description: Western blot of phospho-ERK1/2 in U-937 cells. The series is classed as cell-based. The note with it: higher concentrations, 18 h, total ERK1/2 unaffected. As for the experimental part:
as §4

The subject of series [11] is H3. Description: Western blot of acetyl-H3 and phospho-H3 in U-937 cells. In kind it is cell-based. The note with it: higher concentrations, 18 h. As for the experimental part:
as §4

In a further series the test system is HL-60 cells. Description: CD11c expression by flow cytometry in HL-60 cells. In kind it is cell-based. The note with it: 48 h. As for the experimental part: as §1, §2
For the next series, the system named is Kasumi-1 cells. Description: CD11c expression by flow cytometry in Kasumi-1 cells. The series is classed as cell-based. The note with it: 3 days. As for the experimental part: as §1, §2
The conditions of series [12]: in human; cited from earlier work.
The conditions of series [13]: in non-human primates; cited from earlier work.
The conditions of series [14]: in rats; cited from earlier work.

Molecules are shown by their SMILES. Read-outs that look alike come from different tables or passages of the source.

On to `CC(/C=C/C(=O)NO)=C\[C@@H](C)C(=O)c1ccc(N(C)C)cc1` [TSA, trichostatin A], for which the metabolism result in series [1] (in vivo) is reported as “rapidly metabolized”. Also, the “activity in vivo (anti-tumor)” value in series [2] is on record as “does not exhibit significant activity”.

For `COCCO` [ethylene glycol monomethyl ether], the developmental toxicity entry in series [3] is recorded as “developmental toxicant”.

Consider `COCC(=O)O` [MAA, methoxyacetic acid], for which, in the series with NB4 cells [4] (MAA 1 mM added to ATO 0.1 to 1 μM, NB4 cells, 3 days), the “percentage of cells expressing CD11c induced by ATO” value is reported as “significantly increases”. For the same molecule, the “percentage of cells expressing CD11b” value in the series on NB4 cells [4] (MAA 1 mM alone, NB4 cells, 24 h, from 26%) is 51%. The “expression of CD11c and CD11b” value in the series on NB4 cells [4] (MAA 5 mM alone, NB4 cells, 3 days) was “can induce expression”. In addition, the “NB4 cell differentiation (CD11c)” value in the series with NB4 cells [4] (MAA 5 mM, 21 h) is on record as “can induce NB4 cell differentiation”. The “percentage of cells expressing CD11c” value is 41% with NB4 cells [4] (NB4 cells, 24 h, from 32%) and “increased” in the series on Kasumi-1 cells. Further, in the series with NB4 cells [4] (NB4 cells, 3 days), the “percentage of NB4 cells expressing the myeloid differentiation markers CD11c and CD11b” value is given as “comparable to ATRA”. In addition, the NB4 differentiation entry in the series on NB4 cells [4] (NB4 cells, FIG. 10) was “potent inducers”. The “apoptosis (Annexin V)” value is “does not induce significant amount of apoptosis” in the series on NB4 cells [5] and “inducing apoptosis” with U-937 cells [9]. Further, in the series with RARE-TK-Luc reporter, the “transcription of RARE-containing reporter gene (RARE-TK-Luc)” value is on record as “does not activate”. Moreover, the “degradation of RARα and accumulation of ΔPML-RARα” value on PML-RARα is “not observed”. Further, the “expression level of PML-RARα fusion protein” value on PML-RARα is listed as “no effect”. The “level of phosphorylated C/EBPβ at Thr-235” value with C/EBPβ (17 h) was “dose-dependent increase”. Further, the “phosphorylation of C/EBPβ at Thr-235” value in the series on C/EBPβ (lower concentrations, 24 h) is recorded as “maximal phosphorylation”. Further, the “levels of phosphorylated ERK” value with ERK1/2 [6] (higher concentrations (no differentiating effects), total ERK not decreased) is recorded as “dramatically decreased”. Also, the “constitutive levels of phosphorylated ERK” value with ERK1/2 [6] (lower concentrations) is given as “did not change”. Further, in the series with histones H3 and H4 (as shown in the applicant's study (histone acetylation)), the “HDACI potency relative to BA” value is recorded as “less potent HDACI than BA”. Besides, the “H3 or H4 acetylation” value in the series on histones H3 and H4 (concentrations optimal for differentiation, NB4 cells, 24 h) was “no significant increase”. For the same molecule, the “H3 and H4 acetylation” value in the series with histones H3 and H4 (concentrations required for apoptosis, NB4 cells, 24 h) is “robust acetylation”. The “H3 phosphorylation (Ser-10)” value in the series with H3 [7] (higher concentrations) is “dramatically increased”; in the series on H3 [7] (lower concentrations), “without effect”. Besides, the “expression of the differentiation marker CD11c” value in the series with U-937 cells [8] was “increasing expression”. In addition, the “activity of ERK1/2 (phospho-ERK1/2)” value in the series on ERK1/2 [10] is on record as “downregulate”. Also, the “H3 acetylation and phosphorylation” value with H3 [11] is given as “increase”. In the series on HL-60 cells, the “differentiation as evidenced by expression of CD11c” value was “induce differentiation”. Further, the elimination half-life in series [12] was 77.1 h; in series [13], 20 h; in [14] it was 13 to 18 h. The half-life in vivo result in series [1] (Shih et al 2001) is reported as “long”.
